Measurements published in patent US20250058002A1, “ELECTROCHEMICAL INHIBITION OF REDOX ACTIVE BACTERIA AND RELATED DEVICES, METHODS AND SYSTEMS” (priority 2023, published 2025).
Entries after “also recorded” stand apart in the source; their conditions may differ. Like-named read-outs stand apart in the source and are kept apart here.

What was measured:
[1] = Midpoint potential E1/2 by voltammetry vs Ag/AgCl (3M KCl); type: physicochemical; conditions: for E1/2 (vs. Ag/AgCl (3M KCl))/mV: Example 15 table
Description: The purified redox-active molecule can be dissolved in aqueous solution at appropriate concentration in the presence of supporting electrolyte and buffer to select the pH of measurement. For example, the redox-active molecule can be dissolved in 10 μM-10 mM concentrations in distilled, deionized water (DDW). The supporting electrolyte can be a salt such as NaCl or KCl at 0.01-0.5 M concentrations, for example, dissolved in DDW. The buffer can be 10 mM ammonium acetate/3-(N-morpholino)propanesulfonic acid at pH 7, or phosphate-buffered saline (PBS) at pH 7.4, or sodium acetate buffer at pH 5, or di-sodium hydrogen phosphate/potassium dihydrogen phosphate at pH 9, or boric acid/citric acid/trisodium phosphate for a wide range of pH values, for example.
Voltammetric methods are then used to characterize the electrochemical behavior of the redox-active molecule in such solution, with a potentiostat such as a Gamry PC4-300, using a three-electrode setup with working electrode (glassy carbon, or platinum, or gold), counter electrode (platinum wire) and reference electrode (Ag/AgCl (3M KCl), or SCE, or NHE; values are reported relative to Ag/AgCl (3M KCl) which has potential +197 mV vs. NHE at 298K).
For example, cyclic voltammetry may be used. In a cyclic voltammetry experiment phenazines will show a peak on the cathodic sweep (denoted Epc) corresponding to the reduction of the redox molecule.
The reverse, anodic sweep will show a peak (denoted Epa) corresponding to the re-oxidation of the redox molecule. If the electrode reaction is diffusion-controlled and reversible, the cathodic and anodic peak currents will be equal in area, and the mid-point between these peaks may be taken as the formal reduction potential of the redox molecule under the experimental conditions used. This value can interchangeably be referred to as the “midpoint potential” or “mid-peak potential”, denoted E1/2.
PYO was purified from aerobic bacterial cultures and was dissolved in 0.1 M KCl aqueous solution buffered with 10 mM ammonium acetate-3-(N-morpholino)propanesulfonic acid (5 mM each, pH 7) to yield a stock solution concentration of 829 μM PYO. Electrochemical measurements were performed with a Gamry PC4-300 potentiostat. A stationary gold disk electrode (BASi) was used as the working electrode, an Ag/AgCl electrode (RE-51, BASi) as the reference, and a straight platinum wire (BASi) was the counter electrode. Scans were performed between 20 and 500 mV/s in the potential range of around E1/2 (+/−300 mV), at 298 K.
As described in en.wikipedia.org/wiki/Nernst_equation, the Nernst equation relates E1/2 measured at pH 7 to the E1/2 at a different pH by:
[formula] • where E1/2 is in V • h is the number of protons transferred in the electrochemical reaction • e is the number of electrons transferred in the electrochemical reaction

PA14 [2] = assay: Redox cycles over 7 days and support of survival (Table 4); type: cell-based, P. aeruginosa
Text: (§1) Phenazines and other redox active compound in the sense of the disclosure can be further characterized by various electrical properties such as a standard electrode potential E° vs. NHE of −500 mV to 500 mV and other properties such as number of redox cycle over a certain period of time (e.g. number of days) as ability to support survival and susceptibility to reduction by enzymes and/or bacterial strains.

PA14 [3] = assay: Reduction of redox-active compound by PA14 (Table 4); type: cell-based, P. aeruginosa
Text: as §1

[4] = oxidized form; literature values (footnotes a, c, d); cited from earlier work
[5] = from Wang and Newman (2008), cited from earlier work
[6] = vs NHE at pH7; cited from earlier work
[7] = Standard electrode potential E0' vs NHE of exemplary redox-active compounds (Table 4); type: physicochemical; conditions: measured in aqueous solution at pH 7 in this study (footnote b)
Text: as §1

[8] = test system: P. aeruginosa PA14 biofilms; assay: Anoxic survival (CFU) of electrode-attached wild type biofilms at poised potential with sub-MIC antibiotics; type: cell-based, P. aeruginosa UCBPP-PA14; conditions: for decrease in cell survival under PYO-reductive conditions compared with OC: −400 mV vs OC, 1 μg/mL meropenem or 4 μg/mL ciprofloxacin; for effect on wild type biofilms under PYO-reductive conditions (in words): anoxic, sub-MIC antibiotic
Description: (§2) Electrochemical reactors and biofilm growth. Double-jacketed electrochemical reactors (Pine Instruments, 250 ml, wide center port 29/26) were used with ITO-coated 0.2 mm thick boro-aluminosilicate glass slides (Delta Technologies, 24×60 mm, Rs=7-10Ω) as working electrodes, freshly sanded graphite rods (Alfa Aesar) as counter electrodes, and Ag/AgCl in 3M KCl reference electrodes (BASi). Silver epoxy (Electron Microscopy Sciences) was used to make electrical connection between insulated wire ([…]) and working electrode and was insulated using 5 Minute® expoxy (Devcon). Working electrodes were assembled within 5 hours of use. Reactors were sterilized by autoclaving without reference or working electrodes, which were sterilized by submerging in 10% bleach for 5 minutes or 30 seconds, respectively, and rinsed in sterile water. Individual mid-log liquid cultures (OD600 0.45-0.55) were used to inoculate sterile reactors containing 140 ml of MM (described above) with 0.1% (vol/vol) for each biological replicate. Antibiotics were not added at this point. Working electrodes were poised at either open circuit, +100 mV, or −400 mV vs. Ag/AgCl (+310 mV and −190 mV vs the standard hydrogen electrode, respectively). Reactors were aerated using an aquarium pump with a 0.2 μm filter (Thermo Scientific) and heated to 31° C. using a circulating water bath (Haake A 25, Thermo Scientific). Fresh medium was exchanged every 24 hours for 5 days. After 5 days of aerobic growth, working electrode-attached biofilms were rinsed in sterile medium to remove planktonic cells and transferred to sterile reactors with fresh MM previously flushed for 2 hours with N2 ultra-high purity gas (NRL supply store). For antibiotic exposure experiments, antibiotics were added to sterile media before flushing with N2. For PYO-addition experiments, 10 μM PYO (Cayman Chemical) was added to in the MM before flushing with N2. Working electrodes were poised to their corresponding potential and biofilms were incubated for an additional 72 hours under N2 flushing at 31° C.
Biofilm harvesting and processing. After 72 hours of incubation under anoxic conditions, electrode-attached biofilms were rinsed in sterile media. The biofilms within the bottom 3.12 cm^2 of each working electrode were scraped off using a cell scraper (Sarstedt) and resuspended in antibiotic-free MM. Serial dilutions were prepared in sterile antibiotic-free MM and plated on antibiotic-free LB. The rest of the electrode-attached biofilms were incubated at room temperature in freshly-made 2 μM TOTO-1 and 10 μM SYTO-60 (Invitrogen) in MM for 15 minutes and rinsed 2× in sterile MM for 15 minutes. Imaging was done with an upright Zeiss LSM 800 microscope with Airyscan and a 40× oil immersion lens. SYTO-60 was excited with a 561 nm; 0.20% laser and emission was recorded from 580-700 nm. TOTO-1 was excited with a 488 nm; 0.20% laser and emission was recorded from 490 to 580 nm.
In order to test the effect of antibiotic in combination with application of a difference in voltage to P. aenuginosa, sub-MICs of gentamicin, meropenem, ciprofloxacin, and colistin were added to anoxic survival reactors set up as described in Examples 1 and 2.

Δphz* biofilms = assay: Anoxic survival (CFU) of electrode-attached phenazine-deficient biofilms at poised potential; type: cell-based, P. aeruginosa UCBPP-PA14; Δphz*; conditions: 4 μg/mL gentamicin, −400 mV, absence of phenazines
Description: as §2, with “For PYO-addition experiments, 10 μM PYO (Cayman Chemical) was added to in the MM before flushing with N2. Working electrodes were poised to their corresponding potential and biofilms were incubated for an additional 72 hours under N2 flushing at 31° C.” left out
Biofilm harvesting and processing. […] SYTO-60 was excited with a 561 nm; 0.20% laser and emission was recorded from 580-700 nm. TOTO-1 was excited with a 488 nm; 0.20% laser and emission was recorded from 490 to 580 nm.

C[n+]1c2ccccc2nc2c(C(=O)O)cccc21
E1/2 (vs. Ag/AgCl (3M KCl))/mV ([1]; pH 7): 0 mV

O=C(O)c1cccc2nc3c(C(=O)O)cccc3nc12
E1/2 (vs. Ag/AgCl (3M KCl))/mV ([1]; pH 7): 0 mV

O=C1c2ccc(S(=O)(=O)O)cc2C(=O)C2C=CC(S(=O)(=O)O)=CC12 (stereo not shown)
E1/2 (vs. Ag/AgCl (3M KCl))/mV ([1]; pH 7): −381 mV

Oc1cccc2nc3ccccc3nc12 [1-Hydroxyphenazine (1-OHPHZ), 1-Hydroxyphenazine]
Support survival? (PA14 [2]): Yes
# of Redox cycles over 7 days (PA14 [2]): 14
Reduction by PA14? (PA14 [3]): Yes
E1/2 (vs. Ag/AgCl (3M KCl))/mV ([1]; pH 5): −254 mV
E1/2 (vs. Ag/AgCl (3M KCl))/mV ([1]; pH 6): −323 mV
E1/2 (vs. Ag/AgCl (3M KCl))/mV ([1]; pH 7): −371 mV
E1/2 (vs. Ag/AgCl (3M KCl))/mV ([1]; pH 8): −442 mV
E0' (vs. NHE) (mV) [4]: −174^a mV
E1/2 (vs. Ag/AgCl (3M KCl))/mV ([5]; pH 5): −254 mV
E1/2 (vs. Ag/AgCl (3M KCl))/mV ([5]; pH 6): −323 mV
E1/2 (vs. Ag/AgCl (3M KCl))/mV ([5]; pH 7): −371 mV
E1/2 (vs. Ag/AgCl (3M KCl))/mV ([5]; pH 8): −442 mV

O=C1c2ccc(S(=O)(=O)O)cc2C(=O)c2ccc(S(=O)(=O)O)cc21 [2,6-AQDS]
Support survival? (PA14 [2]): No
# of Redox cycles over 7 days (PA14 [2]): No cycle
Reduction by PA14? (PA14 [3]): Yes (very slowly)
Redox potentials E (mV) [6]: −184 mV
E0' (vs. NHE) (mV) [4]: −184^d mV

NC1=C(C(=O)O)C(=O)c2ccccc2C1=O [ACNQ ox/red, ACNQ]
Redox potentials E (mV) [6]: −71 mV

O=C1CCC(=O)N(O)CCC(O)CNC(=O)CCC(=O)N(O)CCC(O)CN1 (stereo not shown) [Alcaligin]
Redox potentials E (mV) [6]: −588 mV

O=C(O)Cc1cc(O)ccc1O [Homogentisic acid (HMA), Homogentisic acid]
E0' (vs. NHE) (mV) [7]: +306^b mV
Support survival? (PA14 [2]): No
# of Redox cycles over 7 days (PA14 [2]): No cycle

C[n+]1ccc(-c2cc[n+](C)cc2)cc1 [Paraquat]
Support survival? (PA14 [2]): No
# of Redox cycles over 7 days (PA14 [2]): No cycle
Reduction by PA14? (PA14 [3]): No
E0' (vs. NHE) (mV) [4]: −446^c mV

O=C(O)c1cccc2nc3ccccc3nc12 [Phenazine-1-carboxylate (PCA), Phenazine-1-carboxylate]
Support survival? (PA14 [2]): Yes
# of Redox cycles over 7 days (PA14 [2]): 22
Reduction by PA14? (PA14 [3]): Yes
E1/2 (vs. Ag/AgCl (3M KCl))/mV ([1]; pH 5): −185 mV
E1/2 (vs. Ag/AgCl (3M KCl))/mV ([1]; pH 6): −257 mV
E1/2 (vs. Ag/AgCl (3M KCl))/mV ([1]; pH 7): −313 mV
E0' (vs. NHE) (mV) [4]: −114^a mV
E1/2 (vs. Ag/AgCl (3M KCl))/mV ([5]; pH 5): −185 mV
E1/2 (vs. Ag/AgCl (3M KCl))/mV ([5]; pH 6): −257 mV
E1/2 (vs. Ag/AgCl (3M KCl))/mV ([5]; pH 7): −313 mV

NC(=O)c1cccc2nc3ccccc3nc12 [XXV, phenazine-1-carboxamide]
E1/2 (vs. Ag/AgCl (3M KCl))/mV ([1]; pH 5): −205 mV
E1/2 (vs. Ag/AgCl (3M KCl))/mV ([1]; pH 6): −278 mV
E1/2 (vs. Ag/AgCl (3M KCl))/mV ([1]; pH 7): −337 mV
E1/2 (vs. Ag/AgCl (3M KCl))/mV ([5]; pH 5): −205 mV
E1/2 (vs. Ag/AgCl (3M KCl))/mV ([5]; pH 6): −278 mV
E1/2 (vs. Ag/AgCl (3M KCl))/mV ([5]; pH 7): −337 mV

O=C(O)c1cn(C2CC2)c2cc(N3CCNCC3)c(F)cc2c1=O [ciprofloxacin]
decrease in cell survival under PYO-reductive conditions compared with OC [8]: ~100 ×

NC1=C(C(=O)O)C(=O)c2ccccc2C1=O [drawing 45]
E1/2 (vs. Ag/AgCl (3M KCl))/mV ([1]; pH 7): −250 mV

C[C@@H](O)[C@H]1C(=O)N2C(C(=O)O)=C(S[C@@H]3CN[C@H](C(=O)N(C)C)C3)[C@H](C)[C@H]12 [meropenem]
decrease in cell survival under PYO-reductive conditions compared with OC [8]: ~100 ×

Menaquinone [Menaquinone ox/red]
Redox potentials E (mV) [6]: −75 mV

NAD/NADH
midpoint potential vs Ag/AgCl ([1]; aqueous environment at pH7): −600 mV
Redox potentials E (mV) [6]: −320 mV

O2/H2O
Redox potentials E (mV) [6]: +820 mV

Ubiquinone [Ubiquinone ox/red]
Redox potentials E (mV) [6]: +113 mV

colistin
decrease in CFUs under PYO-oxidative conditions compared with nontreated biofilms ([8]; +100 mV, 10 μg/mL colistin vs no antibiotic): 10 ×
effect on wild type biofilms under PYO-reductive conditions (in words) ([8]; −400 mV vs Ag/AgCl): did not show an additive effect

gentamicin
CFU/cm^2 ± SE, −400 mV (PYO-reductive conditions) ([8]; wild type biofilms, 72 h anoxic, −400 mV vs Ag/AgCl, n=3, 4 μg/mL gentamicin, 1 μg/mL meropenem, 4 μg/mL ciprofloxacin): 21.4±10.7 CFU/cm^2
effect on wild type biofilms under PYO-reductive conditions (in words) ([8]; −400 mV vs Ag/AgCl): almost fully eradicated WT biofilms; also recorded: almost completely eradicated wild type biofilms
effect on Δphz* biofilms under PYO-reductive conditions (in words) (Δphz* biofilms): did not affect Δphz* biofilms; also recorded: had no effect on the survival of Δphz* biofilms
